Reference: US20220226335A1, “Non-Peptidic Heterocycle-Containing Compounds for the Treatment of Alzheimer?s Disease” (The Governors of the University of Alberta, priority 2019, published 2022)
Where two headings read alike, the source gives them in different places. Where no end group is shown, it is not given here.

What was measured:
[1] = test system: brain hippocampal slices; assay: hippocampal long term potentiation (LTP) electrophysiology, slices from wild type mice; design: species or system mouse; conditions: for effect on human amylin-induced depression/reduction of LTP: hippocampal slices, Compounds 3 and 23 at 1 μM
Description: Hippocampal long term potentiation (LTP) electrophysiology experiments: an in vitro cellular surrogate for memory. Brains were quickly removed from mice following decapitation, placed in a cold artificial cerebral spinal fluid (aCSF) on a vibratome chamber and transverse sections cut through the hippocampus. The aCSF contained (in mM) 124 NaCl, 3 KCl, 2.4 CaCl2), 2 MgCl2, 1.25 NaH2PO4, 26 NaHCO3 and 10 D-glucose, and was equilibrated with 95% O2 and 5% CO2. Hippocampal slices ([…]) were maintained in aCSF-filled holding chamber at room temperature for at least 1 hour and individually transferred to the submerged glass bottom recording chamber, which was constantly perfused with aCSF (2 mL/min) at 30° C. Field excitatory postsynaptic potential (fEPSP) was recorded with a metallic (Pt/Ir) electrode (FHC, Bowdoin, Me.) from the stratum radiatum layer of Cornu ammonis 1 region of the hippocampus (CA1) area, and the Schaffer collateral afferents were stimulated with 100-μs test pulses via a bipolar cluster electrode (FHC) (Kimura et al., 2012, Kimura et al. 2016). To evaluate basal synaptic transmission, we applied different stimulation strengths (75 μA to 300 μA in steps of 25 μA) and plotted the amplitudes of presynaptic fiber volleys versus the corresponding fEPSP slopes to compare the slope of input/output (I/O) curves of fEPSP. For long-term potentiation (LTP) experiments, the stimulus strength was set to elicit 40-50% of the maximum fEPSP amplitude and test pulses were delivered to Schaffer collaterals once every 30 seconds. LTP was induced by 3-theta-burst stimulation (3-TBS) protocol (each burst consisted of 4 pulses at 100 Hz with a 200-ms inter-burst interval). Before 3-TBS or drug application, the responses were monitored for at least 10 minutes to ensure a stable baseline of fEPSP. […] Results were from various treatment groups were plotted as histograms with means±standard error (SE). […]

[2] = molecular target: T1, amylin receptor subtype 3 (AMY3) (Homo sapiens, UniProt O60896+P30988); assay: cAMP assay in amylin receptor subtype 3 expressing cells (AMY3-HEK), ELISA and in-cell Western; format: cell-based; conditions: for IC50: compound and human amylin applied simultaneously, read-out: IC50 required to block hAmylin induced cAMP increase
T1 construct: expressed in transfected cells
T1 sequence (P30988 25-474): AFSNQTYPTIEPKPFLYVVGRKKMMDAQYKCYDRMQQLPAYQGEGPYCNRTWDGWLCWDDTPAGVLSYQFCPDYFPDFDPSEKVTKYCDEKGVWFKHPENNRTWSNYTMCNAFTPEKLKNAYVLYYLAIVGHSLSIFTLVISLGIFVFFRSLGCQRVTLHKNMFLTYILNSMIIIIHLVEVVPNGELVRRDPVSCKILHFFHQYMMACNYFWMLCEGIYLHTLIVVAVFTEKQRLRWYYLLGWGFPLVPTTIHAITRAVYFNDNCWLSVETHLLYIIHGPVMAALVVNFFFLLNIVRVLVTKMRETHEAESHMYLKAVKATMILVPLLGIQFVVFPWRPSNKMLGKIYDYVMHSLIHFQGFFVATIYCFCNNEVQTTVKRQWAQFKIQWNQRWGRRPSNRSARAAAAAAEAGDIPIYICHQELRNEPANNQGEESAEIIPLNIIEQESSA
T1 sequence (O60896 24-148): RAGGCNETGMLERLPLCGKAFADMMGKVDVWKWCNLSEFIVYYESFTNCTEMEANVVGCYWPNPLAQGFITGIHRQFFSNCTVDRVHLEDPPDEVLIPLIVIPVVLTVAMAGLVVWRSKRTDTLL
Protocol: An initial set of 10 compounds was screened using a cyclic AMP (cyclic adenosinemonophosphate, cAMP) assay in amylin receptor subtype 3 expressing cells.
Cell Cultures. Amylin receptor subtypes (AMY3-HEK cells) stably expressed in human embryonic kidney (HEK293) cell-line were generated and characterized as described in a previous published article from our laboratory (Fu et al., J. Biol. Chem. 2012). The AMY3-HEK cells were grown in a 5% CO2 humidified incubator at 37° C. with DMEM, 10% FBS, and 100 μg/mL Zeocin medium.
Two cAMP detection methods were used to validate the findings.
ELISA (enzyme-linked immunosorbent assay). Cellular cAMP levels were measured using a parameter cyclic AMP assay kit (R&D Systems) according to the manufacturer's instructions. Briefly, AMY3-HEK cells were plated on 24-well plates overnight. These cells were then incubated with or without the assay compounds and hAmylin for 5 min. The cells were lysed with lysis buffer provided in the assay kit. Standard curves were plotted using the cAMP standards provided in the ELISA kits. All samples were analyzed in duplicate. The plate is measured at 450 nm. Data was plotted, and non-linear regression was fitted with four parameters using Prism software (GraphPad Software, La Jolla, Calif.).
In-cell Western blot technique. Intracellular cAMP signaling profiles were also determined using in-cell Western blot technique as previously described (Fu W, et al., J Biol Chem. 2012; 287(22):18820-30). AMY3-HEK cells were seeded at 10,000 cells/well in a 96-well plate (Nalge Nunc Intl., Rochester, N.Y.) in DMEM, 10% FBS, Zeocin medium and cultured overnight. […] For cyclic adenosinemonophosphate (cAMP) quantification, mouse monoclonal anti-cAMP (R&D Systems) was used as a primary antibody, and IRDye 800 goat anti mouse antibody (LI-COR) was used as a secondary antibody, whereas Sapphire700 and DRAQ5 were used for cell number normalization (LI-COR). […]

[3] = test system: hippocampal brain slices from transgenic AD mice (TgCRND8); assay: hippocampal LTP electrophysiology, slices from transgenic AD mice (TgCRND8); design: species or system mouse; conditions: compared with age-matched control/wild type mice
Description: Hippocampal long term potentiation (LTP) electrophysiology experiments: an in vitro cellular surrogate for memory. Brains were quickly removed from mice following decapitation, placed in a cold artificial cerebral spinal fluid (aCSF) on a vibratome chamber and transverse sections cut through the hippocampus. The aCSF contained (in mM) 124 NaCl, 3 KCl, 2.4 CaCl2), 2 MgCl2, 1.25 NaH2PO4, 26 NaHCO3 and 10 D-glucose, and was equilibrated with 95% O2 and 5% CO2. Hippocampal slices ([…]) were maintained in aCSF-filled holding chamber at room temperature for at least 1 hour and individually transferred to the submerged glass bottom recording chamber, which was constantly perfused with aCSF (2 mL/min) at 30° C. Field excitatory postsynaptic potential (fEPSP) was recorded with a metallic (Pt/Ir) electrode (FHC, Bowdoin, Me.) from the stratum radiatum layer of Cornu ammonis 1 region of the hippocampus (CA1) area, and the Schaffer collateral afferents were stimulated with 100-μs test pulses via a bipolar cluster electrode (FHC) (Kimura et al., 2012, Kimura et al. 2016). […] Before 3-TBS or drug application, the responses were monitored for at least 10 minutes to ensure a stable baseline of fEPSP. […]

[4] = test system: Aβ plaques; assay: Aβ plaque load (FIG. 8); format: in vivo
[5] = test system: amylin receptor; assay: downstream phosphoERK response; format: cell-based; conditions: among Compounds 22-25
[6] = test system: SK-N-SH (human) neuronal cells; assay: MTT cell death / cytotoxicity assay, SK-N-SH neuronal cells; format: cell-based; conditions: 10 μM Aβ1-42 for 24 hours
Protocol: (§1) MTT Cell Death Assay. The N2a (mouse) and SK-N-SH (human) neuronal cells were seeded to 5000 cells/well in a 96-well plate in DMEM medium, 10% FBS and incubated overnight. Cells in culture medium were incubated either with or without the assay compounds and Aβ1-42, 10 μM for 24-48 h. At the end of treatment, 20 μL of 5 mg/mL 3-(4,5-dimethylthiazol-2-yl)-2,5-diphenyltetrazolium bromide (MTT, Sigma) was added to each well and incubated at 37° C. for 3 h. Medium was removed, 100 μL of MTT solvent (isopropanol with 4 mM HCl) was added to each well, and the plates were incubated for 30 min at room temperature on a rotating shaker. Plates were analyzed on a microplate reader at a 562 nm wavelength.
(§2) FIGS. 2A and 2B. In mouse and human neuronal cell lines co-application of Compound 3 blunted human amylin and amyloid beta induced cytotoxicity. Neuronal cell lines N2a and SK-N-HS were treated with increasing concentrations of Compound 3 plus 10 μM Aβ1-42 or 5 μM hAmylin for 48 h.

[7] = test system: N2a cells; assay: Live/Dead cell assay; format: cell-based, mouse; conditions: data not shown
Protocol: Live/Dead cell assay. LIVE/DEAD™ Viability/Cytotoxicity Kit from ThermoFisher Scientific (Invitrogen) was used according to the instructions of the manufacturer. Briefly, The N2a cells were cultured in 8 well Lab-Tek chamber slide (ThermoFisher Scientific, Nunc). Cells were incubated either with or without the assay compounds, followed by treatment with Aβ1-42 for 24 h. At the end of treatment, the cells were washed three times with D-PBS, followed added live/dead reagent in D-PBS and culture for 30 min. Then fixed the cells with 4% paraformaldehyde for 10 min. Further washed the cells with PBS three times and sealed with coverslip. View the labeled cells under fluorescence microscope. Fluorescent microscopy images were acquired with an Axioplan-2 fluorescence microscope with AxioVision software (Carl Zeiss Ltd., Toronto, ON, Canada). Live/Dead cells were analyzed with Image J software (Schneider, C. A., Rasband, W. S., Eliceiri, K. W. “NIH Image to ImageJ: 25 years of image analysis”. Nature Methods 2012; 9:671-675).

[8] = test system: N2a (mouse) neuronal cells; assay: MTT cell death assay, N2a neuronal cells; format: cell-based; conditions: 10 μM Aβ1-42 for 24 hours
Protocol: as §1, §2

[9] = test system: neurons; conditions: Jhamandas et al., 2004; 2011; 2012; cited from earlier work
[10] = test system: hippocampus of Alzheimer's disease mice (TgCRND8); conditions: Kimura et al., 2012; 2016; cited from earlier work

COC(=O)N[C@H](C(=O)N1CCC[C@H]1c1ncc(-c2ccccc2)[nH]1)C(C)C [AVI9030, methyl N-[(1S)-2-methyl-1-[[(2S)-2-(5-phenyl-1H-imidazol-2-yl)-1-pyrrolidinyl]carbonyl]propyl]carbamate, reference compound]
effect on human amylin-induced depression/reduction of LTP [1]: did not block human amylin-induced reduction of LTP

Cc1nc(C)c(CCC(=O)N2CC(=O)Nc3ccccc32)c(=O)[nH]1 [Compound 23, 4-(3-(2,4-dimethyl-6-oxo-1,6-dihydropyrimidin-5-yl)propanoyl)-3,4-dihydroquinoxalin-2(1H)-one]
IC50 ([2]; 0.1 μM hAmylin): 1 nM | IC50 ([2]; 1 μM hAmylin): 150 nM | potency rank in cAMP assay ([2]; among Compounds 22-25): most potent of these four analogues | effect on chronically depressed LTP in transgenic AD mice slices [3]: restoration of LTP in AD mice to levels comparable to wild type mice | effect on human amylin-induced depression/reduction of LTP [1]: restored the reduction in LTP by nanomolar dose of human amylim (h-Amylin) to control levels | effect on amyloid beta (Aβ)-induced reduction in LTP ([1]; nanomolar dose of Aβ, compound 1 μM): restored to control levels | area covered by plaques [4]: decreases | total Aβ plaques [4]: decreases | potency rank in downstream phosphoERK response [5]: most potent of these four analogues | neuroprotection against amyloid beta toxicity [6]: neuroprotective against amyloid beta toxicity | neuroprotective effects against Aβ toxicity, Live/Dead cell assay [7]: confirmed neuroprotective effects | neuroprotection against amyloid beta toxicity [8]: neuroprotective against amyloid beta toxicity

AC253: peptide antagonist of the amylin receptor, SEQ ID NO: 1 (Ac-LGRLSQELHRLQTYPRTNTGSNTY)
neuroprotection against Aβ toxicity [9]: neuroprotective against Aβ toxicity | effect on Aβ- or human amylin-induced depression of long-term potentiation [10]: can reverse impairment of Aβ- or human amylin-induced depression of long-term potentiation

cyclized AC253: cyclized AC253 (CLGRLSQELHRLQTYPRTNTGSNTYC; also: cyclised, mode of ring closure not given here) [reference compound]
area covered by plaques [4]: decreases | total Aβ plaques [4]: decreases
